For 22 compounds, IC50 and microsomal CLint results are on record in EP4725941A1, “ARYLAMIDE DERIVATIVE HAVING ANTITUMOR ACTIVITY” (priority 2020, dated 2021).

For one data set, the target named is T1, MEK1 (Homo sapiens, UniProt Q02750).
T1 construct: purchased Thermo Fisher Scientific Inc. (MEK1, CRAF); Carna Biosciences, Inc. (ERK2)
The data set can be described thus: MEK1-inhibiting activity, fluorescent polarization method (CRAF/MEK1/ERK2 cascade, IMAP). It is filed as biochemical. As to conditions: Table 3; read-out: MEK1 IC50. The method, then: The MEK1-inhibiting activity of the compounds listed in Table 3 below were evaluated by the fluorescent polarization method as described below.

In a further data set the target is T2, BRAF (Homo sapiens, UniProt P15056).
T2 construct: purchased Eurofins Genomics KK; (BRAF); Thermo Fisher Scientific Inc. (MEK1)
T2 sequence (P15056 417-766 limits assumed): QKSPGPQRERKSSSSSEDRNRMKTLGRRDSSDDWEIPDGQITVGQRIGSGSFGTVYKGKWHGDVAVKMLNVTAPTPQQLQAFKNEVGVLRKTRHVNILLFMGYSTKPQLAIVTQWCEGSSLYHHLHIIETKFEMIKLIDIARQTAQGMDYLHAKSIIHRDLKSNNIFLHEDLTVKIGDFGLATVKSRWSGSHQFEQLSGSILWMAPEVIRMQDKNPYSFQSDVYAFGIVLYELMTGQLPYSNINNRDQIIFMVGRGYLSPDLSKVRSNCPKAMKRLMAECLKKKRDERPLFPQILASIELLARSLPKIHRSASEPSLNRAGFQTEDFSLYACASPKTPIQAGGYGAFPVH
Put plainly: BRAF-inhibiting activity, time-resolved fluorescence-fluorescence resonance energy transfer assay. Type of data set: biochemical. The method, then:
The BRAF-inhibiting activity of the compounds listed in Table 3 below was evaluated by the time-resolved fluorescence-fluorescence resonance energy transfer assay as described below.

Data set [1] can be described thus: Human liver microsome stability. It is filed as in vitro ADME. As to conditions: human liver microsomes, pH 7.4.
A further data set concerns A549. The data set can be described thus: Cell proliferation-inhibiting activity (ATP in viable cells, CellTiter-Glo), A549. Type of data set: cell-based, human. The conditions noted are these: human lung cancer cells, 4 days; read-out: A549 IC50. (In general: In ATP-based viability assays light output follows the ATP content of the culture.)
The subject of another data set is NCI-H2122. Put plainly: Cell proliferation-inhibiting activity (ATP in viable cells, CellTiter-Glo), NCI-H2122. It is filed as cell-based, human. As to conditions: human lung cancer cells, 4 days, read-out: NCI-H2122 IC50.

Molecules are shown by their SMILES. Where two headings read alike, the source gives them in different places.

T1 sequence (Q02750 whole entry): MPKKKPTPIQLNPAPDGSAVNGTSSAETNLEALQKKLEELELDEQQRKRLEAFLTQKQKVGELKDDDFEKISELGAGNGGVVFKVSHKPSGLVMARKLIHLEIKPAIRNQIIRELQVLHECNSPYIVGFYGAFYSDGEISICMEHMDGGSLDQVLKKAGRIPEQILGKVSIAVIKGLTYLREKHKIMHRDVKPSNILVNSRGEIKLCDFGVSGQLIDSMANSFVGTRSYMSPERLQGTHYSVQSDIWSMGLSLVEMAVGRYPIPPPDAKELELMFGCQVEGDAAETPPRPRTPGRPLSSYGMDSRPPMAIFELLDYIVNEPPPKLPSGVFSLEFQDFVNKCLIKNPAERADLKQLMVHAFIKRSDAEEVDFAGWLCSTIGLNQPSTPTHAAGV

Take `CNS(=O)(=O)Nc1nccc(Cc2cc(C(=O)NC3CC3)c(Nc3ccc(I)cc3F)c(F)c2F)c1F` [Compound A-2, N-cyclopropyl-3,4-difluoro-2-(2-fluoro-4-iodoanilino)-5-[[3-fluoro-2-(methylsulfamoylamino)pyridin-4-yl]methyl]benzamide]: the 50% inhibitory concentration (IC50) on MEK1 turned out to be 0.005 µM; at BRAF (read-out: BRAF IC50; Table 3) it was 0.003 µM. The compound also yielded a microsomal CLint at 0.99 µM in data set [1] of 25 µL/min/mg.

In the case of `COCC1(NS(=O)(=O)Nc2nccc(Cc3cc(C(N)=O)c(Nc4ccc(I)cc4F)c(F)c3F)c2F)CC1` [Compound A-16], the half-maximal inhibitory concentration (IC50) at MEK1 stood at 0.008 µM; on BRAF (Table 3; read-out: BRAF IC50), 0.003 µM; in the data set on A549 it was 0.014 µM; in the data set on NCI-H2122 it was 0.003 µM.

Turning to `CCNS(=O)(=O)Nc1nccc(Cc2cc(C(=O)NOCCO)c(Nc3ccc(I)cc3F)c(F)c2F)c1F` [Compound A-44, 5-[[2-(Ethylsulfamoylamino)-3-fluoropyridin-4-yl]methyl]-3,4-difluoro-2-(2-fluoro-4-iodoanilino)-N-(2-hydroxyethoxy)benzamide], the concentration for half-maximal inhibition (IC50) on MEK1 was determined as 0.002 µM; at BRAF (Table 3; read-out: BRAF IC50) it was 0.019 µM; with NCI-H2122 (NCI-H2122, 96 h), 0.001 µM.

As for `CC1(NS(=O)(=O)Nc2nccc(Cc3cc(C(=O)NC4CC4)c(Nc4ccc(I)cc4F)c(F)c3F)c2F)CCC1` [Compound A-47, N-Cyclopropyl-3,4-difluoro-2-(2-fluoro-4-iodoanilino)-5-[[3-fluoro-2-[(1-methylcyclobutyl)sulfamoylamino]pyridin-4-yl]methyl]benzamide], the IC50 on MEK1 amounted to 0.039 µM; on BRAF (read-out: BRAF IC50; Table 3) it was 0.021 µM; with NCI-H2122 (NCI-H2122, 96 h) it was 0.017 µM. In addition, the microsomal CLint at 0.99 µM in data set [1] amounted to 38 µL/min/mg.

As for `CC1(NS(=O)(=O)Nc2cccc(Cc3cc(C(=O)NC4CC4)c(Nc4ccc(I)cc4F)c(F)c3F)c2F)CCC1` [Compound D-10, N-Cyclopropyl-3,4-difluoro-2-(2-fluoro-4-iodoanilino)-5-[[2-fluoro-3-[(1-methylcyclobutyl)sulfamoylamino]phenyl]methyl]benzamide], the IC50 was 0.261 µM on MEK1; 0.034 µM on BRAF (read-out: BRAF IC50; Table 3); 0.028 µM in the data set with NCI-H2122 (NCI-H2122, 96 h). The compound further came in with an intrinsic metabolic clearance (microsomal CLint) at 0.99 µM in data set [1] of 107 µL/min/mg.

Turning to `CNS(=O)(=O)Nc1cccc(Cc2cc(C(=O)NC3CC3)c(Nc3ccc(C4CC4)cc3F)c(F)c2F)c1F` [Compound D-15, N-Cyclopropyl-2-(4-cyclopropyl-2-fluoroanilino)-3,4-difluoro-5-[[2-fluoro-3-(methylsulfamoylamino)phenyl]methyl]benzamide], the IC50 on MEK1 was determined as 1.24 µM; on BRAF (read-out: BRAF IC50; Table 3), 0.017 µM. Also, the microsomal CLint at 0.99 µM in data set [1] was 91 µL/min/mg.

Take `CNS(=O)(=O)Nc1nccc(Cc2cc(C(=O)NC3CC3)c(Nc3ccc(C4CC4)cc3F)c(F)c2F)c1F` [Compound G-1, N-Cyclopropyl-2-(4-cyclopropyl-2-fluoroanilino)-3,4-difluoro-5-[[3-fluoro-2-(methylsulfamoylamino)pyridin-4-yl]methyl]benzamide]: the half-maximal inhibitory concentration (IC50) on MEK1 was found to be 0.222 µM; at BRAF (read-out: BRAF IC50; Table 3) it was 0.012 µM. The microsomal CLint at 0.99 µM in data set [1] came out at 32 µL/min/mg.

Take `CCS(=O)(=O)Nc1nccc(Cc2cc(C(=O)NC3CC3)c(Nc3ccc(C4CC4)cc3F)c(F)c2F)c1F` [Compound G-7, N-Cyclopropyl-2-(4-cyclopropyl-2-fluoroanilino)-5-[[2-(ethylsulfonylamino)-3-fluoropyridin-4-yl]methyl]-3,4-difluorobenzamide]: the 50% inhibitory concentration (IC50) on MEK1 is 2.47 µM; at BRAF (read-out: BRAF IC50; Table 3), 0.046 µM; with NCI-H2122 (NCI-H2122, 96 h) it was 0.075 µM. The same compound registered a microsomal CLint at 0.99 µM in data set [1] of 21 µL/min/mg.

On to `NC(=O)c1cc(Cc2ccnc(NS(=O)(=O)NC3CC3)c2F)c(F)cc1Nc1ccc(I)cc1F` [Compound I-3, 5-[[2-(Cyclopropylsulfamoylamino)-3-fluoropyridin-4-yl]methyl]-4-flu oro-2-(2-fluoro-4-iodoanilino)benzamide], for which the values for the half-maximal inhibitory concentration (IC50) on MEK1 and on BRAF (read-out: BRAF IC50; Table 3) were 0.055 µM and 0.002 µM, respectively. Further, the intrinsic clearance (microsomal CLint) at 0.99 µM in data set [1] stood at 16 µL/min/mg.

Take `COCCNS(=O)(=O)Nc1nccc(Cc2cc(C(N)=O)c(Nc3ccc(I)cc3F)cc2F)c1F` [Compound I-4, 4-Fluoro-2-(2-fluoro-4-iodoanilino)-5-[[3-fluoro-2-(2-methoxyethylsulfamoylamino)pyridin-4-yl]methyl]benzamide]: the IC50 turned out to be 0.275 µM on MEK1; 0.004 µM on BRAF (read-out: BRAF IC50; Table 3); 0.083 µM with NCI-H2122 (NCI-H2122, 96 h). In data set [1], this compound yielded an intrinsic clearance (microsomal CLint) at 0.99 µM of 25 µL/min/mg.

`COCCNS(=O)(=O)Nc1nccc(Cc2cc(C(N)=O)c(Nc3ccc(I)cc3F)n(C)c2=O)c1F` [Compound J-2, 2-(2-Fluoro-4-iodoanilino)-5-[[3-fluoro-2-(2-methoxyethylsulfamoylamino)pyridin-4-yl]methyl]-1-methyl-6-oxopyridine-3-carboxamide]: the IC50 on MEK1 was found to be 0.495 µM; at BRAF (read-out: BRAF IC50; Table 3) it was 0.011 µM; in the data set with NCI-H2122 (NCI-H2122, 96 h) it was 0.13 µM. Moreover, in data set [1], the intrinsic clearance (microsomal CLint) at 0.99 µM turned out to be 16 µL/min/mg.

Take `CNS(=O)(=O)Nc1nccc(Cc2cc(C(N)=O)c(Nc3ccc(C4CC4)cc3F)n(C)c2=O)c1F` [Compound J-3, 2-(4-Cyclopropyl-2-fluoroanilino)-5-[[3-fluoro-2-(methylsulfamoylamino)pyridin-4-yl]methyl]-1-methyl-6-oxopyridine-3-carboxamide]: the IC50 at MEK1 turned out to be 0.308 µM; at BRAF (read-out: BRAF IC50; Table 3), 0.011 µM. The compound also had a microsomal CLint at 0.99 µM in data set [1] of 23 µL/min/mg.

As to `COCCNS(=O)(=O)Nc1nccc(Cc2cc(C(=O)NOC)c(Nc3ccc(I)cc3F)n(C)c2=O)c1F` [Compound J-9, 2-(2-Fluoro-4-iodoanilino)-5-[[3-fluoro-2-(2-methoxyethylsulfamoylamino)pyridin-4-yl]methyl]-N-methoxy-1-methyl-6-oxopyridine-3-carbox amide], the IC50 on MEK1 is 0.064 µM; on BRAF (read-out: BRAF IC50; Table 3), 0.003 µM; with NCI-H2122 (NCI-H2122, 96 h), 0.017 µM. In addition, the intrinsic clearance (microsomal CLint) at 0.99 µM in data set [1] worked out at 23 µL/min/mg.

Regarding `CCS(=O)(=O)Nc1cc(Cc2cc(C(N)=O)c(Nc3ccc(I)cc3F)n(C)c2=O)ccn1` [Compound J-12, 5-[[2-(Ethylsulfonylamino)pyridin-4-yl]methyl]-2-(2-fluoro-4-iodoanilino)-1-methyl-6-oxopyridine-3-carboxamide], the concentration for half-maximal inhibition (IC50) at MEK1 is 2.29 µM; in the data set on NCI-H2122 (NCI-H2122, 96 h), 0.18 µM. In data set [1], this compound had a microsomal CLint at 0.99 µM of 19 µL/min/mg.

Consider `Cn1c(Nc2ccc(I)cc2F)c(C(N)=O)cc(Cc2ccnc(NS(=O)(=O)NC3CC3)c2F)c1=O` [Compound J-13, 5-[[2-(Cyclopropylsulfamoylamino)-3-fluoropyridin-4-yl]methyl]-2-(2-fluoro-4-iodoanilino)-1-methyl-6-oxopyridine-3-carboxamide], for which the half-maximal inhibitory concentration (IC50) on MEK1 came out at 0.029 µM; at BRAF (read-out: BRAF IC50; Table 3), 0.004 µM; with NCI-H2122 (NCI-H2122, 96 h), 0.08 µM. The microsomal CLint at 0.99 µM in data set [1] is 39 µL/min/mg.

Consider `CCNS(=O)(=O)Nc1nccc(Cc2cc(C(N)=O)c(Nc3ccc(I)cc3F)n(C)c2=O)c1F` [Compound J-14, 5-[[2-(ethylsulfamoylamino)-3-fluoropyridin-4-yl]methyl]-2-(2-fluoro-4-iodoanilino)-1-methyl-6-oxopyridine-3-carboxamide], for which the half-inhibitory concentration (IC50) at MEK1 turned out to be 0.022 µM; on BRAF (read-out: BRAF IC50; Table 3), 0.003 µM; with NCI-H2122 (NCI-H2122, 96 h), 0.037 µM. The same compound had a microsomal CLint at 0.99 µM in data set [1] of 34 µL/min/mg.

On to `Cn1c(Nc2ccc(I)cc2F)c(C(N)=O)cc(Cc2ccnc(NS(=O)(=O)NC3(C)CCC3)c2F)c1=O` [Compound J-15, 2-(2-Fluoro-4-iodoanilino)-5-[[3-fluoro-2-[(1-methylcyclobutyl)sulfamoylamino]pyridin-4-yl]methyl]-1-methyl-6-oxopyridine-3-carboxamide], for which the IC50 at MEK1 was found to be 0.056 µM; at BRAF (read-out: BRAF IC50; Table 3), 0.012 µM; in the data set on NCI-H2122 (NCI-H2122, 96 h) it was 0.046 µM. Moreover, the microsomal CLint at 0.99 µM in data set [1] was 225 µL/min/mg.

For `CCCNS(=O)(=O)Nc1nccc(Cn2cc(C(N)=O)c(Nc3ccc(I)cc3F)c(F)c2=O)c1F` [Compound N-2, 5-Fluoro-4-(2-fluoro-4-iodoanilino)-1-[[3-fluoro-2-(propylsulfamoylamino)pyridin-4-yl]methyl]-6-oxopyridine-3-carboxamide], the concentration for half-maximal inhibition (IC50) at MEK1 turned out to be 0.001 µM; on BRAF (read-out: BRAF IC50; Table 3), 0.001 µM; in the data set with NCI-H2122 (NCI-H2122, 96 h), 0.06 µM. This compound also returned a microsomal CLint at 0.99 µM in data set [1] of 11 µL/min/mg.

For the compound `CCS(=O)(=O)Nc1nccc(Cn2cc(C(N)=O)c(Nc3ccc(I)cc3F)c(C)c2=O)c1F` [Compound P-2, 1-[[2-(Ethylsulfonylamino)-3-fluoropyridin-4-yl]methyl]-4-(2-fluoro-4-iodoanilino)-5-methyl-6-oxopyridine-3-carboxamide], the IC50 on MEK1 was found to be 0.008 µM. The compound also returned a microsomal CLint at 0.99 µM in data set [1] of 3 µL/min/mg.

Take `Cc1c(Nc2ccc(I)cc2F)c(C(N)=O)cn(Cc2ccnc(NS(=O)(=O)NC3(C)CCC3)c2F)c1=O` [Compound P-3, 4-(2-Fluoro-4-iodoanilino)-1-[[3-fluoro-2-[(1-methylcyclobutyl)sulfamoylamino]pyridin-4-yl]methyl]-5-methyl-6-oxopyridine-3-carboxamide]: the half-inhibitory concentration (IC50) at MEK1 is 0.003 µM; on BRAF (read-out: BRAF IC50; Table 3), 0.01 µM; in the data set with NCI-H2122 (NCI-H2122, 96 h), 0.096 µM. Further, in data set [1], the microsomal CLint at 0.99 µM came out at 37 µL/min/mg.

For the compound `CCS(=O)(=O)Nc1nccc(Cn2cc(C(=O)NOC)c(Nc3ccc(I)cc3F)c(C)c2=O)c1F` [Compound P-5], the concentration for half-maximal inhibition (IC50) on MEK1 was 0.011 µM; at BRAF (read-out: BRAF IC50; Table 3), 0.011 µM; with NCI-H2122 (NCI-H2122, 96 h) it was 0.031 µM. Besides, in data set [1], the microsomal CLint at 0.99 µM was 2 µL/min/mg.

For `O=C(NOC[C@H](O)CO)c1ccc(F)c(F)c1Nc1ccc(I)cc1F` [Ref-1, N-[(2R)-2,3-Dihydroxypropoxy]-3,4-difluoro-2-(2-fluoro-4-iodoanilino)benzamide, reference compound], in data set [1], the microsomal CLint at 0.99 µM is 20 µL/min/mg.

A word on the IC50: it is the concentration that gives 50% inhibition. For orientation: microsomal CLint means the capacity of the preparation to metabolise the compound, expressed as a volume cleared per time. Lower therefore signals slow turnover.
